Results on 35 compounds are retold here after ChEMBL document CHEMBL3797029, “Purinylpyridinylamino-based DFG-in/αC-helix-out B-Raf inhibitors: Applying mutant versus wild-type B-Raf selectivity indices for compound profiling” (Bioorg Med Chem, 2016).

Each structure is given as a SMILES string. Some results are limits rather than exact numbers.

A word on the IC50: it is the point on the concentration scale where inhibition reaches its midpoint. As a reminder, the EC50 is the concentration at which the effect is half-maximal.

The target of assay [1] is T1, Serine/threonine-protein kinase B-raf (Homo sapiens, UniProt P15056, V600E). Nature of the assay: Inhibition of B-Raf V600E mutant in human A375 cells assessed as ERK phosphorylation preincubated for 1 hr by Western blot method. The format is cell-based, A-375.
The target of assay [2] is T2, Serine/threonine-protein kinase B-raf (Homo sapiens, UniProt P15056). Nature of the assay: Inhibition of wild type B-Raf (unknown origin) assessed as MEK1 phosphorylation using MEK1-Avitag as substrate after 1 hr by HTRF assay. (TR-FRET usually uses a lanthanide donor and a delayed reading to cut background.)
Assay [3] deals with T1, Serine/threonine-protein kinase B-raf. Nature of the assay: Inhibition of B-Raf V600E mutant (unknown origin) assessed as MEK1 phosphorylation using MEK1-Avitag as substrate after 1 hr by HTRF assay.
In assay [4] the test system is MIA PaCa-2. Nature of the assay: Selectivity index, ratio of EC50 for wild type B-Raf in human MIAPaCa2 cells to IC50 for B-Raf V600E mutant in human A375 cells. Type of assay: cell-based.
In assay [5] the target is T2, Serine/threonine-protein kinase B-raf. Description: Inhibition of wild type B-Raf in human MIAPaCa2 cells assessed as reduction in ERK phosphorylation preincubated for 1 hr by Western blot method. Type of assay: cell-based, MIA PaCa-2. In general terms: A western blot detects proteins with antibodies after separation by electrophoresis.

T2 sequence (P15056 whole entry): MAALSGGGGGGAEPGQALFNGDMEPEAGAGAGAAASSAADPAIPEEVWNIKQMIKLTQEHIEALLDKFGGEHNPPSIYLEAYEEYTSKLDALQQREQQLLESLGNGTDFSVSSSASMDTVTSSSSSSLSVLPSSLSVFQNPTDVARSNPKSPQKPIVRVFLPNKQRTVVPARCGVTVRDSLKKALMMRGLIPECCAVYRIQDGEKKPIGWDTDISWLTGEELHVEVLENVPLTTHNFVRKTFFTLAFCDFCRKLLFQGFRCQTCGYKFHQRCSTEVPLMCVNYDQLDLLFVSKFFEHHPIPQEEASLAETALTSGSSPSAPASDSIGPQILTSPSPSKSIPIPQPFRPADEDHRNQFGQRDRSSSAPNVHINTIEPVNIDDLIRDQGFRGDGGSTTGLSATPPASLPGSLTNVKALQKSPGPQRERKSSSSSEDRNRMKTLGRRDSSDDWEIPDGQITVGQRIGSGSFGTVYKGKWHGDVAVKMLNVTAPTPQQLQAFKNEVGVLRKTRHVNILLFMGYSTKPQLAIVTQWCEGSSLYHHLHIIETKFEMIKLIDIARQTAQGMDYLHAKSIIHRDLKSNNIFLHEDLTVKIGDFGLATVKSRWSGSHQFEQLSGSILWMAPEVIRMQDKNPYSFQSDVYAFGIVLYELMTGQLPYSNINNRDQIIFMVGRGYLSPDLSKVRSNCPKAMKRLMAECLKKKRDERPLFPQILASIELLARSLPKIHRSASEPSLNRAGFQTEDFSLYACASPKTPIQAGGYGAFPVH
T1 sequence (P15056 2-766 V600E limits assumed): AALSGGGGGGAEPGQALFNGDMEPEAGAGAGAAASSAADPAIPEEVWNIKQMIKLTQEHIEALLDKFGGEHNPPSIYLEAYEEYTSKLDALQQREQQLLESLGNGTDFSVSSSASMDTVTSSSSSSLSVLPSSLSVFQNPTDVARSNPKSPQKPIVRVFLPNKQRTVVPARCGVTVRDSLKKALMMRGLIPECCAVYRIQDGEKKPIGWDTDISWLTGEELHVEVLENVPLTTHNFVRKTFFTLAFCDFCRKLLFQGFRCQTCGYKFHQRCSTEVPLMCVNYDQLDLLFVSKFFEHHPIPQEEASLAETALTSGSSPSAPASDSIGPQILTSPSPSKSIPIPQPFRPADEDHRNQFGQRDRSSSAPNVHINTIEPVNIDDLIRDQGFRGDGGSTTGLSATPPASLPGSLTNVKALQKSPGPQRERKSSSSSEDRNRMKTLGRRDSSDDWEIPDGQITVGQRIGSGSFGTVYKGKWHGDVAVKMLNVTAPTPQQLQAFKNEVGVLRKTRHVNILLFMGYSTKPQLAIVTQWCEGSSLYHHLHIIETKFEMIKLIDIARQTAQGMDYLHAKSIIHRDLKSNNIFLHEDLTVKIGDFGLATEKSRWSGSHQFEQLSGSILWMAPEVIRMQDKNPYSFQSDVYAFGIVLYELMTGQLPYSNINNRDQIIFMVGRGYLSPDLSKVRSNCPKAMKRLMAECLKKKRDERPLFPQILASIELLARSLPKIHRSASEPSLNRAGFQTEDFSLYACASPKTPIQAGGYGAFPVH

Take `O=S(=O)(Nc1ccc(F)c(Nc2ncccc2-c2ncnc3[nH]cnc23)c1F)N1CCNCC1`: the half-inhibitory concentration (IC50) is 1000 nM in assay [1], more than 1000 nM in assay [2] and more than 1000 nM in assay [3].
On to `O=S(=O)(Nc1ccc(F)c(Nc2ncccc2-c2ncnc3[nH]cnc23)c1F)c1cccnc1`, for which the IC50 in assay [1] was determined as 10 nM; in assay [2] it was 1 nM; in assay [3], 1 nM. Besides, the Ratio in assay [4] amounted to 79. Also, the EC50 in assay [5] was 786 nM.
For `O=S(=O)(CC(F)(F)F)Nc1ccc(F)c(Nc2ncccc2-c2ncnc3[nH]cnc23)c1F`, the IC50 came out at 40 nM in assay [1], 10 nM in assay [2] and 3 nM in assay [3]. In addition, the Ratio in assay [4] came to 18. The EC50 in assay [5] came to 713 nM.
On the same counts, the results for `O=S(=O)(Nc1ccc(F)c(Nc2ncccc2-c2ncnc3[nH]cnc23)c1F)N1CCCC1` are 44 nM, 31 nM, 2 nM, 47 and 2070 nM.
With `O=S(=O)(Nc1ccc(F)c(Nc2ncccc2-c2ncnc3[nH]cnc23)c1F)C1CCCCC1`, the values for the IC50 in assay [1], in assay [2] and in assay [3] were 40 nM, 51 nM and 18 nM, respectively. The Ratio in assay [4] is 109. Besides, in assay [5], the EC50 came out at 4370 nM.
Regarding `CCN(CC)S(=O)(=O)Nc1ccc(F)c(Nc2ncccc2-c2ncnc3[nH]cnc23)c1F`, the half-maximal inhibitory concentration (IC50) in assay [1] stood at 603 nM; in assay [2], 165 nM; in assay [3], 57 nM. Besides, the Ratio in assay [4] stood at 16. The EC50 in assay [5] came to 9910 nM.
On the same counts, the results for `O=S(=O)(Nc1ccc(F)c(Nc2ncccc2-c2ncnc3[nH]cnc23)c1F)c1ccccc1` are 28 nM, 17 nM, 7 nM, 82 and 2290 nM.
Regarding `O=S(=O)(Nc1ccc(F)c(Nc2ncccc2-c2ncnc3[nH]cnc23)c1F)C1CCOCC1`, the IC50 was determined as 356 nM in assay [1], 179 nM in assay [2] and 31 nM in assay [3].
As for `O=S(=O)(Nc1ccc(F)c(Nc2ncccc2-c2ncnc3[nH]cnc23)c1F)N1CCOCC1`, the 50% inhibitory concentration (IC50) in assay [1] came to 293 nM; in assay [2], 102 nM; in assay [3], 62 nM. The Ratio in assay [4] stood at 12. In assay [5], the EC50 stood at 3580 nM.
On the same counts, the results for `CC(C)S(=O)(=O)Nc1ccc(F)c(Nc2ncccc2-c2ncnc3[nH]cnc23)c1F` are 45 nM, 66 nM, 14 nM, 34 and 1540 nM.
On the same counts, the results for `O=S(=O)(Nc1ccc(F)c(Nc2ncccc2-c2ncnc3[nH]cnc23)c1F)N1CC[C@@H](O)C1` are 233 nM, 68 nM, 16 nM, 31 and 7190 nM.
On the same counts, the results for `CCCC(C)S(=O)(=O)Nc1ccc(F)c(Nc2ncccc2-c2ncnc3[nH]cnc23)c1F` (stereo not given) are 130 nM, 112 nM, 18 nM, 62 and 8090 nM.
Turning to `O=S(=O)(Cc1ccccc1)Nc1ccc(F)c(Nc2ncccc2-c2ncnc3[nH]cnc23)c1F`, the IC50 in assay [1] is more than 1000 nM; in assay [2], 111 nM; in assay [3], 186 nM. The EC50 in assay [5] is 5080 nM.
As to `O=S(=O)(Nc1ccc(F)c(Nc2ncccc2-c2ncnc3[nH]cnc23)c1F)N1CCCCC1`, the values for the IC50 in assay [1], in assay [2] and in assay [3] were 65 nM, 38 nM and 15 nM, respectively. For the same compound, in assay [4], the Ratio is 19. Further, the concentration for a half-maximal effect (EC50) in assay [5] was found to be 1220 nM.
Take `CCCS(=O)(=O)Nc1ccc(F)c(Nc2ncccc2-c2ncnc3[nH]cnc23)c1F`: the IC50 in assay [1] was determined as 24 nM; in assay [2], 12 nM; in assay [3], 9 nM. For the same compound, the Ratio in assay [4] is 39. The EC50 in assay [5] came out at 936 nM.
On the same counts, the results for `O=S(=O)(Nc1ccc(F)c(Nc2ncccc2-c2ncnc3[nH]cnc23)c1F)C1CC1` are 173 nM, 132 nM, 41 nM, 12 and 2070 nM.
On to `O=S(=O)(Nc1ccc(F)c(Nc2ncccc2-c2ncnc3[nH]cnc23)c1F)C1CCC1`, for which the IC50 in assay [1] amounted to 41 nM; in assay [2] it was 46 nM; in assay [3] it was 4 nM. The Ratio in assay [4] is 44. In assay [5], the EC50 is 1790 nM.
For `CCC(C)S(=O)(=O)Nc1ccc(F)c(Nc2ncccc2-c2ncnc3[nH]cnc23)c1F` (stereo not given), the IC50 worked out at 27 nM in assay [1], 38 nM in assay [2] and 7 nM in assay [3]. In addition, in assay [4], the Ratio was 29. Also, in assay [5], the EC50 was 778 nM.
With `O=S(=O)(Nc1ccc(F)c(Nc2ncccc2-c2ncnc3[nH]cnc23)c1F)c1cn[nH]c1`, the results for the 50% inhibitory concentration (IC50) in assay [1], in assay [2] and in assay [3] were 6 nM, 1 nM and 0.2 nM, respectively. Further, the Ratio in assay [4] was 135. Moreover, the EC50 in assay [5] was found to be 807 nM.
As to `Cn1cc(S(=O)(=O)Nc2ccc(F)c(Nc3ncccc3-c3ncnc4[nH]cnc34)c2F)cn1`, the IC50 came out at 710 nM in assay [1], 19 nM in assay [2] and 8 nM in assay [3]. For the same compound, the Ratio in assay [4] worked out at 3. In addition, the EC50 in assay [5] was found to be 2220 nM.
On the same counts, the results for `CS(=O)(=O)Nc1ccc(F)c(Nc2ncccc2-c2ncnc3[nH]cnc23)c1F` are 356 nM, 412 nM, 360 nM, 19 and 6690 nM.
As for `Cc1n[nH]c(C)c1S(=O)(=O)Nc1ccc(F)c(Nc2ncccc2-c2ncnc3[nH]cnc23)c1F`, the IC50 in assay [1] was more than 1000 nM; in assay [3] it was 216 nM.
Consider `CC(C)(C)CS(=O)(=O)Nc1ccc(F)c(Nc2ncccc2-c2ncnc3[nH]cnc23)c1F`, for which the half-inhibitory concentration (IC50) turned out to be 63 nM in assay [1], 5 nM in assay [2] and 6 nM in assay [3]. Further, the Ratio in assay [4] came out at 3. The EC50 in assay [5] was determined as 202 nM.
On the same counts, the results for `O=S(=O)(Nc1ccc(F)c(Nc2ncccc2-c2ncnc3[nH]cnc23)c1F)C1CCOC1` (stereo not given) are 31 nM, 26 nM, 5 nM, 48 and 1480 nM.
Turning to `O=S(=O)(Nc1ccc(F)c(Nc2ncccc2-c2ncnc3[nH]cnc23)c1F)c1ccccc1F`, the results for the IC50 in assay [1], in assay [2] and in assay [3] were 12 nM, 10 nM and 3 nM, respectively. The Ratio in assay [4] amounted to 73. The EC50 in assay [5] was 873 nM.
Turning to `CCN(C)S(=O)(=O)Nc1ccc(F)c(Nc2ncccc2-c2ncnc3[nH]cnc23)c1F`, the IC50 came to 87 nM in assay [1], 157 nM in assay [2] and 22 nM in assay [3]. The Ratio in assay [4] came to 20. Also, the half-maximal effective concentration (EC50) in assay [5] was found to be 1780 nM.
On the same counts, the results for `O=S(=O)(Nc1ccc(F)c(Nc2ncccc2-c2ncnc3[nH]cnc23)c1F)c1nccs1` are 31 nM, 2 nM, 1 nM, 25 and 783 nM.
In the case of `O=S(=O)(Nc1ccc(F)c(Nc2ncccc2-c2ncnc3[nH]cnc23)c1F)c1cccc(F)c1`, the IC50 in assay [1] came out at 15 nM; in assay [2], 4 nM; in assay [3] it was 3 nM. Besides, in assay [4], the Ratio was determined as 101. In addition, the EC50 in assay [5] was 1510 nM.
On the same counts, the results for `O=S(=O)(Nc1ccc(F)c(Nc2ncccc2-c2ncnc3[nH]cnc23)c1F)c1ccc(F)cc1` are 242 nM, 83 nM, 36 nM, 23 and 5650 nM.
On the same counts, the results for `O=S(=O)(Nc1ccc(F)c(Nc2ncccc2-c2ncnc3[nH]cnc23)c1F)c1cccs1` are 7 nM, 0.5 nM, 1 nM, 57 and 402 nM.
On the same counts, the results for `O=S(=O)(Nc1ccc(F)c(Nc2ncccc2-c2ncnc3[nH]cnc23)c1F)C1CCCC1` are 11 nM, 21 nM, 2 nM, 164 and 1800 nM.
For `CC(C)CS(=O)(=O)Nc1ccc(F)c(Nc2ncccc2-c2ncnc3[nH]cnc23)c1F`, the IC50 worked out at 17 nM in assay [1], 16 nM in assay [2] and 6 nM in assay [3]. For the same compound, the Ratio in assay [4] was 85. For the same compound, in assay [5], the EC50 came to 1450 nM.
Take `O=S(=O)(Nc1ccc(F)c(Nc2ncccc2-c2ncnc3[nH]cnc23)c1F)N1CC[C@H](O)C1`: the values for the IC50 in assay [1], in assay [2] and in assay [3] were 201 nM, 122 nM and 9 nM, respectively.
For `O=S(=O)(Nc1ccc(F)c(Nc2ncccc2-c2ncnc3[nH]cnc23)c1F)c1ccccn1`, the IC50 was determined as 177 nM in assay [1], 41 nM in assay [2] and 21 nM in assay [3]. Also, the Ratio in assay [4] stood at 45. For the same compound, the EC50 in assay [5] stood at 7940 nM.
On the same counts, the results for `O=S(=O)(CC1CC1)Nc1ccc(F)c(Nc2ncccc2-c2ncnc3[nH]cnc23)c1F` are 33 nM, 26 nM, 8 nM, 65 and 2140 nM.
